Where two headings read alike, the source gives them in different places.
What was measured:
Kv1.3 = Kv1.3 (Homo sapiens, UniProt P22001); conditions: cited from earlier work
[1] = system: peripheral blood mononuclear cells; test: [3H]-thymidine incorporation (proliferation), anti-CD3 stimulated; assay type: cell-based; conditions: Homo sapiens, PBMC; Table 9; 5 ng/ml anti-CD3 Ab for 48 h
Excerpt: [^3H]-thymidine incorporation is a widely used test to assay the proliferative activity of human and rodent lymphocytes. As cells divide [^3H]-thymidine will be incorporated into the newly synthesised DNA of the resulting daughter cells. The faster cells grow the more radioactive [^3H]-thymidine will be incorporated. Any compound that inhibits lymphocytes proliferation will reduce the uptake of radioactivity by the cells treated with it compared to the untreated controls.
The selected compounds were tested to determine its ability to inhibit [^3H]-thymidine incorporation and the results are set out in table 6 below. Resting peripheral blood mononuclear cells from healthy volunteers were seeded at 2×10^5 cells per well in medium (RPMI 1640 supplemented 10% fetal calf serum, 2 mM glutamine, 1 mM sodium pyruvate, 1% nonessential amino acids, 100 units/ml penicillin, 100 μg/ml streptomycin and 50 μM β-mercaptoethanol) in flat-bottom 96 well plates (final volume 200 μl). Cells were pre-incubated with the compound of example 2 for 60 min, and were stimulated with 5 ng/ml anti-CD3 Ab for 48 h. [^3H]-Thymidine (1 μCi per well) was added for the last 6 h. Cells were harvested onto glass fibre filters and radioactivity measured in a scintillation counter. All experiments were done in triplicate. Results are normalised for maximum [^3H]-thymidine incorporation by control.

Kv1.3, sequence (P22001 whole entry): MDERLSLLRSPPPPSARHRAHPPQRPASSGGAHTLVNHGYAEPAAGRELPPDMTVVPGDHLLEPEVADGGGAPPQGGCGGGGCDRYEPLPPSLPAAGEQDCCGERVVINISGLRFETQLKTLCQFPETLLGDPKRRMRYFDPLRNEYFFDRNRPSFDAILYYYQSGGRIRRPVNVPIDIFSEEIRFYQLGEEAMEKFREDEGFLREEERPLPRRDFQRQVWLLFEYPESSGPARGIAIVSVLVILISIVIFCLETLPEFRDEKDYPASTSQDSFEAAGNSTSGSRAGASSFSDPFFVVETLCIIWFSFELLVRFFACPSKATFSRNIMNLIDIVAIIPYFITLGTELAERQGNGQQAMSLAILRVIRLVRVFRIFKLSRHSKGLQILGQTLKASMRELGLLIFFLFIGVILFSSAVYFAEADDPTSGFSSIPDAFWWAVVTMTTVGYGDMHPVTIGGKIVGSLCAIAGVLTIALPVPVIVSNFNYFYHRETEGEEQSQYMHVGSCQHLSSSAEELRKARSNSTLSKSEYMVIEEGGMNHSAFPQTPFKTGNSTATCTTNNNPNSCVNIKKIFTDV

COc1c(C(C)=O)c(O)c(OCCCCCCOc2c(O)c(C(C)=O)c(OC)c3ccoc23)c2occc12 [Compound 92]
melting point: 109 to 111 °C

COc1c(O)c(C(C)=O)c(OCc2cccc3ccccc23)c2ccoc12 [Compound 4]
melting point: 96 to 98 °C

COc1c(O)c(C(C)=O)c(OCc2ccc(C(C)(C)C)cc2)c2ccoc12 [Compound 26]
melting point: 82 to 87 °C

COc1c2occc2cc2ccc(=O)oc12 [Compound 8-MOP, 8-Methoxypsoralen]
blocking activity on the Kv1.3 channel (Kv1.3; result in words): exhibit blocking activity

COc1c(C(C)=O)c(O)c(OCc2cccc(F)c2)c2occc12 [Compound 48]
melting point: 89 to 91 °C

CC(=O)c1c(O)c(OCc2ccccc2)c2occc2c1OCc1ccccc1 [Compound 82]
melting point: 74 to 76 °C

COc1c(O)c(C(C)=O)c(OCc2ccc(F)cc2)c2ccoc12 [Compound 21]
melting point: 100 to 102 °C

COc1c(C(C)=O)c(O)c(OCc2ccc(F)cc2)c2occc12 [Compound 53]
melting point: 99 to 100 °C

COc1c(C(C)=O)c(O)c(OCc2ccc(Cl)cc2)c2occc12 [Compound 54]
melting point: 110 °C

COc1c(C(C)=O)c(O)c(OCCc2ccccc2)c2occc12 [Compound 40]
melting point: 102 to 104 °C

COc1c(C(C)=O)c(O)c(OCCCc2ccccc2)c2occc12 [Compound 41]
EC50 [1]: 1000 nM | melting point: 36 °C

COc1c(C(C)=O)c(O)c(OCc2ccc(COc3c(O)c(C(C)=O)c(OC)c4ccoc34)cc2)c2occc12 [Compound 95]
melting point: 184 to 186 °C

COc1c(O)c(C(C)=O)c(OCCCCCCCOc2c(C(C)=O)c(O)c(OC)c3occc23)c2ccoc12 [Compound 87]
melting point: 122 to 125 °C

COc1c(C(C)=O)c(O)c(OCc2ccc(C(C)(C)C)cc2)c2occc12 [Compound 58]
melting point: 117 to 118 °C

COc1c(C(C)=O)c(O)c(OCc2cccc(C)c2)c2occc12 [Compound 50]
melting point: 81 to 82 °C

COc1c(O)c(C(C)=O)c(OCc2ccccc2Cl)c2ccoc12 [Compound 12]
melting point: 84 to 86 °C

COc1c(C(C)=O)c(O)c(OCc2ccccc2-c2ccccc2)c2occc12 [Compound 47]
melting point: 115 to 117 °C

COc1c(O)c(C(C)=O)c(OCc2ccc(OC(F)(F)F)cc2)c2ccoc12 [Compound 29]
melting point: 130 to 131 °C

COc1c(C(C)=O)c(O)c(OCCCCCc2ccccc2)c2occc12 [Compound 43]
melting point: 31 to 32 °C

COc1c(C(C)=O)c(O)c(OCc2cccc(COc3c(O)c(C(C)=O)c(OC)c4ccoc34)c2)c2occc12 [Compound 94]
melting point: 125 to 128 °C

COc1c(O)c(C(C)=O)c(OCc2ccc(C(=O)c3ccccc3)cc2)c2ccoc12 [Compound 31]
melting point: 132 to 134 °C

COc1c(O)c(C(C)=O)c(OCc2ccccc2F)c2ccoc12 [Compound 11]
melting point: 105 to 108 °C

COc1c(O)c(C(C)=O)c(OCc2ccccc2C)c2ccoc12 [Compound 13]
melting point: 101 to 103 °C

COc1c(O)c(C(C)=O)c(OCc2ccc(C(=O)O)cc2)c2ccoc12 [Compound 32]
melting point: 183 to 186 °C

COc1c(O)c(C(C)=O)c(OCc2ccc(COc3c(C(C)=O)c(O)c(OC)c4occc34)cc2)c2ccoc12 [Compound 89]
melting point: 201 to 203 °C

COc1c(C(C)=O)c(O)c(OC)c2occc12 [Khellinone]
blocking activity on the Kv1.3 channel (Kv1.3): exhibit blocking activity

COc1c(O)c(C(C)=O)c(OCc2ccccc2)c2ccoc12 [Compound 6]
melting point: 93 to 94 °C

COc1c(C(C)=O)c(O)c(OCc2ccc(C(F)(F)F)cc2)c2occc12 [Compound 56]
melting point: 90 to 91 °C

COc1c(O)c(C(C)=O)c(OCc2cccc(OC(F)(F)F)c2)c2ccoc12 [Compound 19]
melting point: 86 to 88 °C

COc1c(C(C)=O)c(O)c(OCc2ccc(-c3ccccc3)cc2)c2occc12 [Compound 59]
melting point: 126 to 127 °C

COc1c(O)c(C(C)=O)c(OCCCCCCOc2c(C(C)=O)c(O)c(OC)c3occc23)c2ccoc12 [Compound 86]
melting point: 147 to 151 °C

COc1c(C(C)=O)c(O)c(OCc2ccc(Br)cc2)c2occc12 [Compound 55]
EC50 [1]: 2500 nM | melting point: 106 to 107 °C

COc1c(O)c(C(C)=O)c(OCCCc2ccccc2)c2ccoc12 [Compound 8]
melting point: 94 to 95 °C

COc1c(C(C)=O)c(O)c(OCc2ccccc2F)c2occc12 [Compound 44]
melting point: 89 to 92 °C

COc1c(C(C)=O)c(O)c(OCc2ccc(OCc3ccccc3)cc2)c2occc12 [Compound 61]
melting point: 118 to 120 °C

COc1c(O)c(C(C)=O)c(OCc2ccc(OCc3ccccc3)cc2)c2ccoc12 [Compound 30]
melting point: 155 to 157 °C

COc1c(O)c(C(C)=O)c(OCCCCOc2c(C(C)=O)c(O)c(OC)c3occc23)c2ccoc12 [Compound 84]
melting point: 209 to 211 °C

COc1c(C(C)=O)c(O)c(OCc2cccc(Cl)c2)c2occc12 [Compound 49]
melting point: 105 to 108 °C

COc1c(C(C)=O)c(O)c(OCc2ccc(C(=O)O)cc2)c2occc12 [Compound 63]
melting point: 208 to 209 °C

COc1c(C(C)=O)c(O)c(OCCCCCOc2c(O)c(C(C)=O)c(OC)c3ccoc23)c2occc12 [Compound 91]
melting point: 132 to 134 °C

COc1c(C(C)=O)c(O)c(OCc2ccc(C(C)C)cc2)c2occc12 [Compound 57]
melting point: 80 to 83 °C

COc1c(O)c(C(C)=O)c(OCc2ccc(Cl)cc2)c2ccoc12 [Compound 22]
EC50 [1]: 2500 nM | melting point: 106 to 108 °C

COc1c(O)c(C(C)=O)c(OCc2ccc(C(C)C)cc2)c2ccoc12 [Compound 25]
melting point: 73 to 75 °C

COc1c(O)c(C(C)=O)c(OCCCCc2ccccc2)c2ccoc12 [Compound 9]
melting point: 121 to 122 °C

COc1c(C(C)=O)c(O)c(OCc2ccccc2C)c2occc12 [Compound 46]
melting point: 86 to 88 °C

COc1c(O)c(C(C)=O)c(OCc2ccc(-c3ccccc3)cc2)c2ccoc12 [Compound 27]
melting point: 163 to 167 °C

COc1c(O)c(C(C)=O)c(OCc2ccccc2-c2ccccc2)c2ccoc12 [Compound 14]
melting point: 126 to 127 °C

COc1c(C(C)=O)c(O)c(OCc2ccccc2)c2occc12 [Compound 39]
melting point: 79 to 80 °C

COc1c(C(C)=O)c(O)c(OCc2cccc([N+](=O)[O-])c2)c2occc12 [Compound 52]
melting point: 157 to 159 °C

COc1c(O)c(C(C)=O)c(OCc2ccc(C(F)(F)F)cc2)c2ccoc12 [Compound 24]
melting point: 104 to 106 °C

COc1c(O)c(C(C)=O)c(OCc2cccc(Cl)c2)c2ccoc12 [Compound 16]
melting point: 108 to 111 °C

COc1c(C(C)=O)c(O)c(OCc2ccc3ccccc3c2)c2occc12 [Compound 38]
melting point: 114 to 115 °C

COc1c(O)c(C(C)=O)c(OCc2cccc(COc3c(C(C)=O)c(O)c(OC)c4occc34)c2)c2ccoc12 [Compound 88]
melting point: 184 to 186 °C

COc1c(O)c(C(C)=O)c(OCCCCCOc2c(C(C)=O)c(O)c(OC)c3occc23)c2ccoc12 [Compound 85]
melting point: 139 to 141 °C

COc1c2occc2c(OCCCCc2ccccc2)c2c(=O)cc(C)oc12 [Compound 99]
melting point: 121 to 122 °C

COc1c(C(C)=O)c(O)c(OCc2ccccc2Cl)c2occc12 [Compound 45]
melting point: 104 to 107 °C

COc1c(O)c(C(C)=O)c(OCc2cccc(C)c2)c2ccoc12 [Compound 17]
melting point: 99 to 101 °C

COc1c(O)c(C(C)=O)c(OCc2cccc(F)c2)c2ccoc12 [Compound 15]
melting point: 118 to 121 °C

COc1c(O)c(C(C)=O)c(OCc2cccc([N+](=O)[O-])c2)c2ccoc12 [Compound 20]
melting point: 160 to 162 °C

COc1c(C(C)=O)c(O)c(OCCCCc2ccccc2)c2occc12 [Compound 42]
melting point: 28 °C
